Source: article PMC11071649, “Synthesis and Selective Anticancer Activity Evaluation of 2-phenylacrylonitrile Derivatives as Tubulin Inhibitors” (Current Medicinal Chemistry, 2024)
Like-named read-outs stand apart in the source and are kept apart here.

Experiments:
MCF-7 breast cancer cell = assay: MTT anti-proliferative assay, MCF-7; assay type: cell-based, human; conditions: Homo sapiens, MCF7; MTT, 48 h
In short: (§1)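 MTT read-out of net cell-growth inhibition after compound exposure of cells seeded in 96-well plates. Lines were ATCC-sourced and grown in DMEM plus FBS.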

[1] = system: diffuse large B-cell lymphoma SU-DHL-10 cell; assay: MTT anti-proliferative assay, SU-DHL-10; assay type: cell-based, human; conditions: Homo sapiens, SU-DHL10
In short: as §1

[2] = system: HeLa cervical cancer cell; assay: MTT anti-proliferative assay, HeLa; assay type: cell-based, human; conditions: Homo sapiens, HeLa; MTT, 48 h
In short: as §1

[3] = system: MGC-803 late stage differentiation gastric cancer cell; assay: MTT anti-proliferative assay, MGC-803; assay type: cell-based, human; conditions: Homo sapiens, MGC-803; MTT, 48 h
In short: as §1

[4] = system: HCT116 colectal cancer cell; assay: MTT anti-proliferative assay, HCT116; assay type: cell-based, human; conditions: Homo sapiens, HCT-116; MTT, 48 h
In short: as §1

[5] = system: MCF-10A normal breast cell; assay: MTT assay, MCF-10A normal cells; assay type: cell-based, human; conditions: Homo sapiens, MCF-10A, 48 h
In short: as §1

AGS gastric cancer cell = assay: MTT anti-proliferative assay, AGS; assay type: cell-based, human; conditions: Homo sapiens; MTT, 48 h
In short: as §1

HepG2 hepatoma cell = assay: MTT anti-proliferative assay, HepG2; assay type: cell-based, human; conditions: Homo sapiens, HepG2; MTT, 48 h; read-out: IC50 HepG-2
In short: as §1

[6] = system: BEL-7402 liver cancer cell; assay: MTT anti-proliferative assay, BEL-7402; assay type: cell-based, human; conditions: Homo sapiens, Bel-7402; MTT, 48 h
In short: as §1

A549 lung cancer cell = assay: MTT anti-proliferative assay, A549; assay type: cell-based, human; conditions: Homo sapiens, A549; MTT, 48 h
In short: as §1

[7] = system: SGC-7901 early differentiation gastric cancer cell; assay: MTT anti-proliferative assay, SGC-7901; assay type: cell-based, human; conditions: Homo sapiens, SGC-7901; MTT, 48 h
In short: as §1

L-02 normal liver cell = assay: MTT assay, L-02 normal cells; assay type: cell-based, human; conditions: Homo sapiens, 48 h
In short: as §1

[8] = system: Raji B lymphoblastoid cell; assay: MTT anti-proliferative assay, Raji; assay type: cell-based, human; conditions: Homo sapiens, Raji
In short: as §1

HeLa cancer cells = system: HeLa cancer cells; parameters: method as in PMID 27887843; conditions: Fig. 1; cited from earlier work
MGC-803 cancer cells = system: MGC-803 cancer cells; parameters: method as in PMID 29516624, PMID 30244610; conditions: Fig. 1; cited from earlier work
L-02 normal cells = system: L-02 normal cells; parameters: method as in PMID 27887843, PMID 29516624, PMID 30244610; conditions: Fig. 1; cited from earlier work
[9] = MTT, 48 h, read-out: IC50 SU-DHL-10

Row | IC50 (MCF-7 breast cancer cell) | IC50 [1, 9] | IC50 [2] | IC50 [3] | IC50 [4] | IC50 (AGS gastric cancer cell) | IC50 (HepG2 hepatoma cell) | IC50 [6] | IC50 (A549 lung cancer cell) | melting point | IC50 [7] | IC50 ([8]; MTT, 48 h, read-out: IC50 Raji) | IC50 ([1]; read-out: IC50 SU-DHL-10 cells) | IC50 ([8]; read-out: IC50 Raji cells) | SMILES | IC50 [5] | IC50 (L-02 normal liver cell) | IC50 (HeLa cancer cells) | IC50 (MGC-803 cancer cells) | IC50 (L-02 normal cells)
1 | > 100 µM | > 100 µM | > 100 µM | > 100 µM | > 100 µM | > 100 µM | > 100 µM | > 100 µM | > 100 µM | 118 to 120 °C | > 100 µM | > 100 µM | – | – | N#C/C(=C\c1cn(Cc2ccccc2)c2ccccc12)c1ccc(OC(F)(F)F)cc1 [Compound 9, (Z)-3-(1-benzyl-1H-indol-3-yl)-2-(4-(trifluoromethoxy)phenyl)acrylonitrile] | > 100 µM | > 100 µM | – | – | –
2 | 17.6 ± 6.5 µM | 1.3 ± 0.1 µM | > 100 µM | > 100 µM | 56.3 ± 8.4 µM | > 100 µM | > 100 µM | 13.2 ± 2.7 µM | > 100 µM | 148 to 150 °C | > 100 µM | 1.2 ± 0.5 µM | ~1 µM | ~1 µM | COc1ccc(C(=O)/C=C/c2ccc(/C=C(\C#N)c3ccc(OC(F)(F)F)cc3)cc2)cc1 [Compound 8a] | 11.3 ± 2.3 µM | > 100 µM | – | – | –
3 | 72.4 ± 9.9 µM | > 100 µM | > 100 µM | > 100 µM | 16.7 ± 3.6 µM | > 100 µM | > 100 µM | 42.5 ± 5.4 µM | > 100 µM | – | > 100 µM | > 100 µM | – | – | Oc1ccc(/C=C/c2cc(O)cc(O)c2)cc1 [Resveratrol, resveratrol, reference compound] | > 100 µM | 12.8 ± 0.2 µM | 120 µM | – | –
4 | > 100 µM | > 100 µM | > 100 µM | > 100 µM | > 100 µM | > 100 µM | > 100 µM | > 100 µM | > 100 µM | 170 to 172 °C | > 100 µM | > 100 µM | – | – | COc1cc(-n2cc(/C=C(\C#N)c3ccc(OC(F)(F)F)cc3)nn2)cc(OC)c1OC [Compound 7c] | > 100 µM | > 100 µM | – | – | –
5 | – | – | – | – | – | – | – | – | – | – | – | – | – | – | COc1cc(/C(C#N)=C/c2ccc(C)cc2)cc(OC)c1OC [Compound 1, (Z)-3-(p-tolyl)-2-(3,4,5-trimethoxyphenyl)acrylonitrile] | – | – | – | < 0.01 µM | > 100 µM
